Reference: PubChem BioAssay AID248 (DTP/NCI, 2004)
Where “and” joins values, the source holds several entries; their conditions need not be identical. Equal entries are not always repeated. Toxic doses and inconclusive results are not listed. No stated cut-off is given here; in the data, active means T/C of 150% or more; inactive means T/C below 125%.

Tested on: L1210 leukemia ip in BDF1 mice, survival T/C
Assay: NCI In Vivo Anticancer Drug Screen. Data for tumor model L1210 Leukemia (intraperitoneal) in B6D2F1 (BDF1) mice
Conditions: endpoint: mean survival time, higher = longer survival
Method in brief: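 Tumor was transplanted into mice, which were then dosed with test compound or vehicle alone. Survival was recorded for each group, and the treated figure was expressed relative to the control figure.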

[1] = dose: 100.0 mg/kg/injection, schedule: Q01DX009 (ip), vehicle: saline with Tween-80
[2] = dose: 100.0 mg/kg/injection, schedule: Q04DX003 (ip), vehicle: saline with Tween-80
[3] = dose: 200.0 mg/kg/injection, schedule: Q04DX003 (ip), vehicle: saline with Tween-80
[4] = dose: 400.0 mg/kg/injection, schedule: Q04DX003 (ip), vehicle: saline with Tween-80
[5] = dose: 100.0 mg/kg/injection, schedule: Q01DX009 (ip), vehicle: saline
[6] = dose: 100.0 mg/kg/injection, schedule: Q04DX003 (ip), vehicle: saline
[7] = dose: 200.0 mg/kg/injection, schedule: Q01DX009 (ip), vehicle: saline
[8] = dose: 200.0 mg/kg/injection, schedule: Q04DX003 (ip), vehicle: saline
[9] = dose: 100.0 mg/kg/injection, schedule: Q01DX009 (ip), vehicle: Klucel (hydroxypropylcellulose) (HPC)
[10] = dose: 200.0 mg/kg/injection, schedule: Q01DX009 (ip), vehicle: Klucel (hydroxypropylcellulose) (HPC)
[11] = dose: 400.0 mg/kg/injection, schedule: Q01DX009 (ip), vehicle: Klucel (hydroxypropylcellulose) (HPC)
[12] = dose: 100.0 mg/kg/injection, schedule: Q01DX001 (ip), vehicle: saline
[13] = dose: 200.0 mg/kg/injection, schedule: Q01DX001 (ip), vehicle: saline
[14] = dose: 400.0 mg/kg/injection, schedule: Q01DX001 (ip), vehicle: saline

Measured: T/C

O=C(CCl)Oc1cccc([N+](=O)[O-])c1
inactive: dose: 25.0 mg/kg/injection, schedule: Q01DX009 (ip), vehicle: saline with Tween-80 92 % of control | dose: 50.0 mg/kg/injection, schedule: Q01DX009 (ip), vehicle: saline with Tween-80 112 % of control | [1] 107 % of control | [2] 91 % of control | [3] 96 % of control | [4] 94 % of control

Cc1nc2cnn(C)c2nc1C
inactive: dose: 50.0 mg/kg/injection, schedule: Q01DX009 (ip), vehicle: saline 101 % of control | [5] 97 % of control | [6] 106 % of control | [7] 88 % of control | [8] 100 % of control

O=C(Nc1ccc(Cl)c(Cl)c1)Oc1ccc(-c2ccccc2)cc1
inactive: [9] 93 % of control | dose: 100.0 mg/kg/injection, schedule: Q04DX003 (ip), vehicle: Klucel (hydroxypropylcellulose) (HPC) 87 % of control | [10] 100 % of control | dose: 200.0 mg/kg/injection, schedule: Q04DX003 (ip), vehicle: Klucel (hydroxypropylcellulose) (HPC) 92 % of control | [11] 90 % of control | dose: 400.0 mg/kg/injection, schedule: Q04DX003 (ip), vehicle: Klucel (hydroxypropylcellulose) (HPC) 88 % of control

NC(=O)/C=C/C(=O)O (tested in a mixture with another compound)
inactive: dose: 31.25 mg/kg/injection, schedule: Q#A X Z (ip), vehicle: saline 118 % of control | dose: 62.5 mg/kg/injection, schedule: Q#A X Z (ip), vehicle: saline 119 % of control | dose: 125.0 mg/kg/injection, schedule: Q#A X Z (ip), vehicle: saline 100 % of control | dose: 125.0 mg/kg/injection, schedule: Q#A X Z (oral), vehicle: saline 102 % of control | dose: 250.0 mg/kg/injection, schedule: Q#A X Z (oral), vehicle: saline 100 % of control | dose: 500.0 mg/kg/injection, schedule: Q#A X Z (oral), vehicle: saline 102 % of control | dose: 1000.0 mg/kg/injection, schedule: Q#A X Z (oral), vehicle: saline 102 % of control

COc1ccc(/C(=C(/CC(=O)O)C(=O)OC(C)(C)C)c2cc(OC)c(OC)c(OC)c2)cc1OC
inactive: dose: 100.0 mg/kg/injection, schedule: Q01DX001 (ip), vehicle: carboxymethylcellulose (CMC) 96 % of control | dose: 200.0 mg/kg/injection, schedule: Q01DX001 (ip), vehicle: carboxymethylcellulose (CMC) 102 % of control | dose: 400.0 mg/kg/injection, schedule: Q01DX001 (ip), vehicle: carboxymethylcellulose (CMC) 97 % of control

CCCC(=O)CCNC
inactive: [12] 103 % of control | [13] 94 % of control | [14] 111 % of control

COC1=[C]([Hg][Br])C(OC)OC1OC (stereo not drawn)
inactive: dose: 5.0 mg/kg/injection, schedule: Q01DX009 (ip), vehicle: saline with Tween-80 89 % of control | dose: 10.0 mg/kg/injection, schedule: Q01DX009 (ip), vehicle: saline with Tween-80 95 % of control

CCOC(=O)CC(=O)CCc1ccccc1
inactive: [12] 104 % of control | [5] 94 % of control and 100 % of control | dose: 100.0 mg/kg/injection, schedule: Q04DX002 (ip), vehicle: saline 103 % of control and 105 % of control | [6] 113 % of control | [13] 104 % of control | [7] 94 % of control and 102 % of control | dose: 200.0 mg/kg/injection, schedule: Q04DX002 (ip), vehicle: saline 100 % of control and 108 % of control | [8] 106 % of control | [14] 103 % of control | dose: 400.0 mg/kg/injection, schedule: Q01DX009 (ip), vehicle: saline 92 % of control and 97 % of control | dose: 400.0 mg/kg/injection, schedule: Q04DX002 (ip), vehicle: saline 96 % of control and 102 % of control | dose: 400.0 mg/kg/injection, schedule: Q04DX003 (ip), vehicle: saline 105 % of control

COc1cc(CCC(=O)O)cc(/C=N/NC(N)=O)c1O
inactive: [12] 101 % of control | [13] 89 % of control | [14] 95 % of control

CCCOC(=O)c1ccc(O)cc1
inactive: [9] 87 % of control | [10] 94 % of control | [11] 102 % of control

Cc1ccc(S(=O)(=O)N/N=C2\CC3(Cl)CCC2C3)cc1 (stereo not drawn)
inactive: [1] 88 % of control | [2] 92 % of control | dose: 200.0 mg/kg/injection, schedule: Q01DX009 (ip), vehicle: saline with Tween-80 91 % of control | [3] 97 % of control | [4] 101 % of control

CC(=O)OC1CCC2(C)C(=CCC3C2CCC2(C)c4c(-c5ccccc5)nn(-c5ccccc5)c4CC32)C1 (stereo not drawn)
inactive: dose: 12.5 mg/kg/injection, schedule: Q04DX002 (ip), vehicle: Klucel (hydroxypropylcellulose) (HPC) 96 % of control | dose: 25.0 mg/kg/injection, schedule: Q04DX002 (ip), vehicle: Klucel (hydroxypropylcellulose) (HPC) 96 % of control | dose: 50.0 mg/kg/injection, schedule: Q04DX002 (ip), vehicle: Klucel (hydroxypropylcellulose) (HPC) 101 % of control

NNCc1cc(Cl)c2cccnc2c1O
inactive: dose: 100.0 mg/kg/injection, schedule: Q04DX002 (ip), vehicle: Klucel (hydroxypropylcellulose) (HPC) 105 % of control | dose: 200.0 mg/kg/injection, schedule: Q04DX002 (ip), vehicle: Klucel (hydroxypropylcellulose) (HPC) 105 % of control | dose: 400.0 mg/kg/injection, schedule: Q04DX002 (ip), vehicle: Klucel (hydroxypropylcellulose) (HPC) 99 % of control

CCCC(=O)OC1=CC(=O)c2ccccc2C1=O
inactive: dose: 75.0 mg/kg/injection, schedule: Q01DX001 (ip), vehicle: other 94 % of control | dose: 150.0 mg/kg/injection, schedule: Q01DX001 (ip), vehicle: other 89 % of control
